Laboratory results taken from ChEMBL document CHEMBL3867449, “Cytotoxic and Antibacterial Preussomerins from the Mangrove Endophytic Fungus Lasiodiplodia theobromae ZJ-HQ1” (J Nat Prod, 2016).
In brackets after ≈: the same amount, converted by molar mass.

Columns and labels:
[1] = Cytotoxicity against human A549 cells assessed as decrease in cell viability after 72 hrs by MTS assay; assay type: functional, cell-based; conditions: A549, 72 h
[2] = Cytotoxicity against human HepG2 cells assessed as decrease in cell viability after 72 hrs by MTS assay; assay type: functional, cell-based; conditions: HepG2, 72 h
[3] = Cytotoxicity against human HeLa cells assessed as decrease in cell viability after 72 hrs by MTS assay; assay type: functional, cell-based
[4] = Cytotoxicity against human MCF7 cells assessed as decrease in cell viability after 72 hrs by MTS assay; assay type: functional, cell-based; conditions: MCF7, 72 h
[5] = Cytotoxicity against HEK293T cells assessed as decrease in cell viability after 72 hrs by MTS assay; assay type: toxicity, cell-based, HEK-293T; conditions: human
Bacillus spizizenii = assay: Antibacterial activity against Bacillus subtilis ATCC 6633 by broth dilution method; assay type: functional
Escherichia coli = assay: Antibacterial activity against Escherichia coli ATCC 25922 by broth dilution method; assay type: functional
Salmonella enteritidis = assay: Antibacterial activity against Salmonella enteritidis ATCC 13076 by broth dilution method; assay type: functional, Salmonella enterica subsp. enterica serovar Enteritidis; conditions: Salmonella enterica
Staphylococcus aureus = assay: Antibacterial activity against Staphylococcus aureus ATCC 12598 by broth dilution method; assay type: functional
Pseudomonas aeruginosa = assay: Antibacterial activity against Pseudomonas aeruginosa ATCC 27853 by broth dilution method; assay type: functional

Structure (SMILES) | IC50 [1] [µM] | IC50 [2] [µM] | IC50 [3] [µM] | IC50 [4] [µM] | IC50 at 72 h [5] [µM] | MIC (Bacillus spizizenii) [µg/mL] | MIC (Escherichia coli) [µg/mL] | MIC (Salmonella enteritidis) [µg/mL] | MIC (Staphylococcus aureus) [µg/mL] | MIC (Pseudomonas aeruginosa) [µg/mL]
O=C1C=C[C@]23Oc4ccc(O)c5c4[C@](Oc4cccc1c42)(O3)[C@@H]1O[C@@H]1[C@@H]5O [PREUSSOMERIN D] | 6.6 | 38 | 21 | 9.8 | 24 | – | – | – | – | –
O=C1c2c(O)ccc3c2[C@@]2(Oc4cccc5c4[C@](C=C[C@@H]5O)(O3)O2)[C@@H]2O[C@H]12 | 7.7 | 3.6 | 18 | 3.1 | 6.9 | 25 (≈ 68.6 µM) | > 50 | > 50 | 13 (≈ 35.7 µM) | > 50
CO[C@@H]1CC(=O)c2cccc3c2[C@@]12Oc1ccc(O)c4c1[C@](O3)(O2)[C@@H]1O[C@@H]1[C@@H]4O [PREUSSOMERIN C] | > 100 | > 100 | > 100 | > 100 | > 100 | > 50 | > 50 | > 50 | > 50 | > 50
CO[C@@H]1[C@H](Cl)C(=O)c2c(O)ccc3c2[C@@]12Oc1cccc4c1[C@](O3)(O2)[C@H](OC)CC4=O | 8.9 | 7.7 | 27 | 6.2 | 11 | 25 (≈ 56.2 µM) | > 50 | > 50 | 3.2 (≈ 7.19 µM) | > 50
CO[C@@H]1CC(=O)c2cccc3c2[C@@]12Oc1ccc(O)c4c1[C@](O3)(O2)[C@H](O)CC4=O | 36.1 | 83 | > 100 | 13 | 83 | – | – | – | – | –
O=C1CC[C@]23Oc4ccc(O)c5c4[C@](Oc4cccc1c42)(O3)[C@@H]1O[C@@H]1[C@@H]5O | 76.2 | > 100 | > 100 | > 100 | 86 | – | – | – | – | –
COc1cccc2c1C(=O)c1c(O)c3c(c(O)c1C2=O)C[C@@](O)(C(=O)CO)C[C@@H]3O[C@H]1C[C@H](N)[C@@H](O)[C@H](C)O1 [EPIRUBICIN] | 0.63 | – | 0.42 | 0.71 | – | – | – | – | – | –
O=C1C[C@@H](O)[C@]23Oc4ccc(O)c5c4[C@](Oc4cccc1c42)(O3)[C@@H]1O[C@@H]1C5=O | 5.4 | 3.8 | 15 | 2.5 | 9.4 | 25 (≈ 65.7 µM) | > 50 | > 50 | 50 (≈ 131 µM) | > 50
O=C1C=C[C@]23Oc4ccc(O)c5c4[C@](Oc4cccc1c42)(O3)[C@@H]1O[C@@H]1C5=O | 6.2 | 8.5 | 14 | 4.2 | 17 | 50 (≈ 138 µM) | > 50 | > 50 | 13 (≈ 35.9 µM) | > 50
O=C(O)c1cn(C2CC2)c2cc(N3CCNCC3)c(F)cc2c1=O [CIPROFLOXACIN] | – | – | – | – | – | 0.5 (≈ 1.51 µM) | – | 0.25 (≈ 0.754 µM) | 0.25 (≈ 0.754 µM) | –
Oc1ccc2c3c1[C@@H](O)[C@H]1O[C@H]1[C@]31Oc3cccc4c3[C@](C=C[C@@H]4O)(O2)O1 | 40.2 | > 100 | > 100 | 71 | > 100 | 13 (≈ 35.5 µM) | > 50 | > 50 | 6.2 (≈ 16.9 µM) | > 50
CO[C@@H]1CC(=O)c2cccc3c2[C@@]12Oc1ccc(O)c4c1[C@](O3)(O2)[C@H](O)[C@H](Cl)C4=O | 8.5 | 13 | 19 | 5.9 | 4.8 | 50 (≈ 116 µM) | > 50 | > 50 | 6.2 (≈ 14.4 µM) | > 50
O=C1CC[C@]23Oc4ccc(O)c5c4[C@](Oc4cccc1c42)(O3)[C@@H]1O[C@@H]1C5=O | 9.4 | 4.4 | 19 | 2.6 | 12 | 13 (≈ 35.7 µM) | > 50 | > 50 | 1.6 (≈ 4.39 µM) | > 50
